Measured values published in the supplement of paper PMC10307832.

What was measured:
Test in all cases: relative viability (nuclei count vs DMSO), 5 days (fraction); higher = more cells survive
[1] = compound: C1CNCCC1C2=CC(=NN2)C3=CC=NC=C3 + CC(C)C[C@H](NC(=O)[C@H](Cc1ccccc1)NC(=O)c1cnccn1)B(O)O [Bortezomib] (partner 0.002 µM)
Outline: (§1)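 Nuclei were stained with Hoechst during a one-step fixation (final 0.05% Triton X-100, 1% formaldehyde, 1 ug/ml Hoechst) carried out 5 days after dosing, then counted on 4× images. The cells, lung cancer lines in 1536-well plates, had been dosed by pin tool the day after seeding with one drug alone or a fixed anchor-drug dose plus five library-drug doses (not always all listed) in √10 steps. Relative viability is the nuclei count in treated wells divided by that in vehicle wells, and each value is the median of duplicate plates.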

[2] = compound: C[C@@H](N)c1ccc(C(=O)Nc2ccnc3[nH]ccc23)cc1 + COc1cc2c(Oc3ccc(NC(=O)C4(C(=O)Nc5ccc(F)cc5)CC4)cc3F)ccnc2cc1OCCCN1CCOCC1 [Foretinib] (partner 0.25 µM)
Outline: as §1

[3] = compound: C[C@@H](N)c1ccc(C(=O)Nc2ccnc3[nH]ccc23)cc1 + O=C(c1cc(Cc2n[nH]c(=O)c3ccccc23)ccc1F)N1CCN(C(=O)C2CC2)CC1 [Olaparib] (partner 8 µM)
Outline: as §1

[4] = compound: C[C@@H](N)c1ccc(C(=O)Nc2ccnc3[nH]ccc23)cc1 + C[C@@H](Oc1cc(-c2cnn(C3CCNCC3)c2)cnc1N)c1c(Cl)ccc(F)c1Cl [Crizotinib] (partner 1 µM)
Outline: as §1

**Q.** With UMC-11 as the cell line, how does the relative viability ([1]; first compound 0.08 µM) read?
**A.** 0.643

**Q.** And the relative viability ([1]; first compound 0.8 µM)?
**A.** 0.919

**Q.** And the relative viability ([1]; first compound 2.53 µM)?
**A.** 0.786

**Q.** What about the relative viability ([1]; first compound 8 µM) of the same cell line?
**A.** 0.688

**Q.** And the relative viability ([2]; first compound 0.04 µM)?
**A.** 1.14

**Q.** And the relative viability ([2]; first compound 0.1265 µM)?
**A.** 1.1

**Q.** And the relative viability ([2]; first compound 0.4 µM)?
**A.** 1.12

**Q.** And the relative viability ([2]; first compound 1.265 µM)?
**A.** 1

**Q.** And the relative viability ([2]; first compound 4 µM)?
**A.** 0.694

**Q.** And the relative viability ([3]; first compound 0.04 µM)?
**A.** 0.359

**Q.** And the relative viability ([3]; first compound 0.1265 µM)?
**A.** 0.427

**Q.** And the relative viability ([3]; first compound 0.4 µM)?
**A.** 0.357

**Q.** What about the relative viability ([3]; first compound 1.265 µM) of the same cell line?
**A.** 0.303

**Q.** And the relative viability ([3]; first compound 4 µM)?
**A.** 0.285

**Q.** What about the relative viability ([4]; first compound 0.04 µM) of the same cell line?
**A.** 0.714

**Q.** And the relative viability ([4]; first compound 0.1265 µM)?
**A.** 0.615

**Q.** What about the relative viability ([4]; first compound 0.4 µM) of the same cell line?
**A.** 0.79

**Q.** And the relative viability ([4]; first compound 1.265 µM)?
**A.** 0.749

**Q.** What about the relative viability ([4]; first compound 4 µM) of the same cell line?
**A.** 0.346
